Data from paper PMC3288262 (Bioorganic & medicinal chemistry letters, 2012).
Values joined by “and” are separate entries in the source; they are usually repeats but may differ in a detail not shown here. Identical values can stand only once. Marks after values point to notes of the source that are not given here. Starred links: 1 amine or outer side, 2 acyl side, 3 side chain; linkers in the order of their positions; H or OH if unused. Non-standard residues stand in square brackets, D forms with d. Residues, ends and D or L forms follow the SMILES beside them. Bcp = 4'-[N-((4'-phenyl)phenethyl)carboxamido]phenylalanine, O=C(NCCc1ccc(-c2ccccc2)cc1)c1ccc(C[C@H](N[*:1])C(=O)[*:2])cc1; Tic = O=C(O)[C@@H]1Cc2ccccc2CN1

Legend:
[1] = system: μ opioid receptor (guinea pig ileum); assay: guinea pig ileum; settings: read-out: GPI IC50; agonist potency; P.A. = partial agonist
human δ opioid receptor = human δ opioid receptor (Homo sapiens, UniProt P41143); type: biochemical; settings: mean of 3–6 determinations ± SEM; for [35S]GTPγS binding ED50: HEK293 cells, human δ opioid receptor
δ opioid receptors = δ opioid receptors (Rattus norvegicus, UniProt P33533); settings: ref [10], cited from earlier work
μ opioid receptors = μ opioid receptors (Rattus norvegicus, UniProt P33535); settings: read-out: Ki^μ; [3H]DAMGO displacement, rat brain membranes; ref [10]; cited from earlier work
[2] = target: δ opioid receptor (mouse vas deferens, δ receptor-representative) (Mus musculus, UniProt P32300); settings: read-out: MVD IC50; agonist potency; ref [10]; cited from earlier work
[3] = system: μ opioid receptor (guinea pig ileum); settings: partial agonist, IC40 given in IC50 column; ref [10]; cited from earlier work

human δ opioid receptor, sequence (P41143 whole entry): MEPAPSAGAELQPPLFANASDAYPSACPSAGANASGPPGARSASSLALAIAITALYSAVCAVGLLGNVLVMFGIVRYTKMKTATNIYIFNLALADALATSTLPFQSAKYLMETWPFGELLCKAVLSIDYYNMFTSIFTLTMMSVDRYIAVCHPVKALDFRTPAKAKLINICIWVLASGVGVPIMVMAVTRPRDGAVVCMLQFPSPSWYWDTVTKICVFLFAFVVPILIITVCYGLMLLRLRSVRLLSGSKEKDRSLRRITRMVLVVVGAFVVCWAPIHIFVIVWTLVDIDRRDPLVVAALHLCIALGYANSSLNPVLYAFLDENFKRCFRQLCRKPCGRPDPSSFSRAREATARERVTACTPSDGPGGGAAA
δ opioid receptors, sequence (P33533 whole entry): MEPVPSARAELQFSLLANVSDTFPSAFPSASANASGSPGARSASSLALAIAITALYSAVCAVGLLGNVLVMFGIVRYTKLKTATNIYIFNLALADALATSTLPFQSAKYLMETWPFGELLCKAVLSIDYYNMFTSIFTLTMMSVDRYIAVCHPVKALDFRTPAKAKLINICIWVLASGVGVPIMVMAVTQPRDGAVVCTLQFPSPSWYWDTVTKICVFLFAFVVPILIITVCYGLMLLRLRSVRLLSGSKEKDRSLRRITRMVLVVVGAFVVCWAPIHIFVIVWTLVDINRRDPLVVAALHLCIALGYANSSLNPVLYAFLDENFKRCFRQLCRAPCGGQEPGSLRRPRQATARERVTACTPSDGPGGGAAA
δ opioid receptor (mouse vas deferens, δ receptor-representative), sequence (P32300 whole entry): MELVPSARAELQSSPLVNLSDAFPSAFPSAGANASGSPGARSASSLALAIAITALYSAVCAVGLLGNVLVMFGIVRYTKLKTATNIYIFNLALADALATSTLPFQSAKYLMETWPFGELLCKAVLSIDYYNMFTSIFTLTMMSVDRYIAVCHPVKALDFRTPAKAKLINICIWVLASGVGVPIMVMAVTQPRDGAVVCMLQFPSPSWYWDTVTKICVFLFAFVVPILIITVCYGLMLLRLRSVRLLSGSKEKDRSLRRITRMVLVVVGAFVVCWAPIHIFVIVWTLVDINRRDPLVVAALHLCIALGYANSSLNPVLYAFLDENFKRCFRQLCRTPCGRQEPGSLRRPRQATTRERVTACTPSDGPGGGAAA
μ opioid receptors, sequence (P33535 whole entry): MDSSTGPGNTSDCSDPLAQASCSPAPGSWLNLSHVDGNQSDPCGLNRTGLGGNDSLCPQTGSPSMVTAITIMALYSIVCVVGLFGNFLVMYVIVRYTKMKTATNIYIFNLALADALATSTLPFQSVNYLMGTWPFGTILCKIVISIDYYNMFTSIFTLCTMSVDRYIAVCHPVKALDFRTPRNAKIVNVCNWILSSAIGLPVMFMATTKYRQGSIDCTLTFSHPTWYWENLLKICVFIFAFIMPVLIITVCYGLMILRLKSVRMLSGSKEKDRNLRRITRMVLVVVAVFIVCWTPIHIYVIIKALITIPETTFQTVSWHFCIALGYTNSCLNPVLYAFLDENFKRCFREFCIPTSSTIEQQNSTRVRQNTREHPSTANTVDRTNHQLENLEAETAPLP

Compound	IC50 [1] [nM]	[35S]GTPγS binding ED50 (human δ opioid receptor)	Ki (δ opioid receptors; read-out: Ki^δ, [3H]DSLET displacement, rat brain membranes) [nM]	Ki (μ opioid receptors) [nM]	IC50 [2] [nM]	Ki^μ/Ki^δ (δ opioid receptors; δ vs. μ receptor binding selectivity)	GPI IC40 [3]	[35S]GTPγS binding efficacy e (human δ opioid receptor; efficacy relative to DPDPE (e = 1.0))
N[C@@H](Cc1ccc(O)cc1)C(=O)N1Cc2ccccc2C[C@H]1C(=O)N[C@@H](Cc1ccccc1)C(=O)N[C@@H](Cc1ccccc1)C(=O)O [TIPP, H-Tyr-Tic-Phe-Phe-OH, reference compound] (H-Y[Tic]FF-OH)	> 10000	antagonist	–	–	–	–	–	–
H-Bcp-Tic-Phe-Phe-OH (H-[Bcp][Tic]FF-OH) [Compound 13]	–	–	0.605 ± 0.058	87.7 ± 8	3.42 ± 0.36	–	–	–
H-Bcp-Tic-Phe-Phe-OH [Compound 13]	–	0.413 ± 0.015 nM	–	–	–	145	223 ± 37 (IC40) ^d nM	0.678 and 0.678 ± 0.076
